How the values were obtained:
Format in all cases: cell-based
MDRAB = assay: Biofilm formation inhibition, crystal violet reporter assay
Description: (§1) The ability of each member of the pilot library to inhibit either E. coli or MDRAB biofilm formation at 100 μM was assessed using a crystal violet reporter assay (O'Toole et al., Mol. Microbiol., 1998, 30: 295-304).

E. coli [1] = assay: Growth curve analysis (A600); settings: at IC50 concentration (13 μM)
Text: (§2) This is typically indicative of biofilm inhibition via a traditional microbicidal mechanism instead of a mechanism that modulates biofilm formation through non-microbicidal mechanisms. […] At this concentration, a 97% reduction in bacterial growth was observed.

E. coli [2] = assay: Biofilm formation inhibition, crystal violet reporter assay; settings: Escherichia coli
Description: as §1, §2

## CCCCCc1[nH]c(N)nc1CCCCCc1ccccc1 [Compound 15, 5-pentyl-4-(5-phenylpentyl)-1H-imidazol-2-amine]
MDRAB
  inhibition at 100 µM: 80.3 ± 8.1%
E. coli [1]
  reduction in bacterial growth: 97%
E. coli [2]; 100 μM
  inhibition at 100 µM: 83 ± 0.8%
E. coli [2]; dose-response
  IC50: 13 µM

Source: patent US9815794B2, “Inhibition of bacterial biofilms and microbial growth with imidazole derivatives” (North Carolina State University, priority 2011, dated 2017)
